The experiment has as its target C-Raf FL (full length CRAF with Y340E and Y341E activating mutations, co-expressed with h14-3-3 zeta) (Homo sapiens (Human), UniProt P04049, Y340E/Y341E). The experiment can be described thus: In vitro Raf activity determination, AlphaScreen p-MEK readout, c-Raf (C-Raf FL). In kind it is biochemical. The settings on record: c-Raf approximately 4 nM, ATP 1 μM, pre-incubation 60 minutes, reaction 1 hour. An excerpt:
Sf9 cells co-expressing both proteins were lysed and subjected to immobilized nickel chromatography and eluted with Imidazole. A second column (StrepII binding column) was used and eluted with desthiobiotin. Protein Tags were removed using Prescission enzyme and the protein was further purified using a flowthrough step to remove tags.
C-Raf TR refers to a truncated C-Raf protein, a Δ1-324 deletion mutant. C-Raf FL refers to the full-length C-Raf protein.
Full length MEK1 with an inactivating K97R ATP binding site mutation is utilized as a RAF substrate. The MEK1 cDNA was subcloned with an N-terminal (his)6 tag into a vector for E. Coli expression. The MEK1 substrate was purified from E. Coli lysate by nickel affinity chromatography followed by anion exchange. The final MEK1 preparation was biotinylated (Pierce EZ-Link Sulfo-NHS-LC-Biotin) and concentrated.
Assay Materials: Assay buffer is 50 mM Tris, pH 7.5, 15 mM MgCl2, 0.01% Bovine Serum Albumin (BSA) and 1 mM dithiothreitol (DTT); Stop buffer is 60 mM ethylenediaminetetraacetic acid (EDTA) and 0.01% Tween® 20; b-Raf (V600E), active; biotinylated Mek, kinase dead; Alpha Screen detection kit (available from PerkinElmer™, #6760617R); Anti phospho-MEK1/2 (available from Cell Signaling Technology, Inc. #9121); 384 well low volume assay plates (White Greiner® plates).
Assay conditions: b-Raf (V600E) approximately 4 pM; c-Raf approximately 4 nM; biotinylated Mek, kinase dead approximately 10 nM; ATP 10 μM for BRAF (V600E) and 1 μM for CRAF; Pre-incubation time with compounds 60 minutes at room temperature; Reaction time 1 or 3 hours at room temperature.
Assay protocol: Raf and biotinylated Mek (kinase dead) were combined at 2× final concentrations in assay buffer (50 mM Tris, pH 7.5, 15 mM MgCl2, 0.01% BSA and 1 mM DTT) and dispensed […] per well in assay plates (Greiner white 384 well assay plates #781207) containing […] of 40× of a Raf kinase inhibitor test compound diluted in 100% DMSO. The plate was incubated for 60 minutes at room temperature. The Raf kinase activity reaction was started by the addition of […] per well of 2×ATP diluted in assay buffer. After 3 hours (b-Raf(V600E)) or 1 hour (c-Raf). The reactions were stopped and the phosphorylated product was measured using a rabbit anti-p-MEK (Cell Signaling, #9121) antibody and the Alpha Screen IgG (ProteinA) detection Kit (PerkinElmer #6760617R), by the addition of […] to the well of a mixture of the antibody (1:2000 dilution) and detection beads (1:2000 dilution of both beads) in Stop/bead buffer (25 mM EDTA, 50 mM Tris, pH 7.5, 0.01% Tween20). The additions were carried out under dark conditions to protect the detection beads from light. A lid was placed on top of the plate and incubated for 1 hour at room temperature, after which the luminescence was read on a PerkinElmer Envision instrument.
(Bead proximity is the source of the signal in Alpha formats.)

With `Cc1ncc(NC(=O)c2cccc(C(F)(F)F)c2)cc1-c1ccc2c(c1)N1CCOCC[C@H]1C[C@@H]2O` [Example 447, N-(5-((5aS,7S)-7-hydroxy-1,2,5,5a,6,7-hexahydro-4H-[1,4]oxazepino [4,5-a]quinolin-10-yl)-6-methylpyridin-3-yl)-3-(trifluoro-methyl)benzamide], the IC50 came to 0.5 nM.

Compound `Cc1ccc(NC(=O)c2ccnc(C(F)(F)F)c2)cc1-c1cnc2c(c1)C1C3COCC3C1C(=O)N2CCO` (centres unmarked) [Example 278, N-(3-(5-(2-hydroxyethyl)-6-oxo-5,6,6a,6b,7,9,9a,9b-octahydrofuro[3′,4′: 3,4]cyclobuta[1,2-c][1,8]naphthyridin 2-yl)-4-methylphenyl)-2-(trifluoromethyl) isonicotinamide] had an IC50 of 0.3 nM.

`Cc1ccc(NC(=O)c2ccnc(C(F)(F)F)c2)cc1-c1cnc2c(c1)N1CCOC[C@H]1C1(COC1)C2` [Example 154, (R)-N-(4-methyl-3-(1′,2′,4′,4a′-tetrahydro-6′H-spiro[oxetane-3,5′-[1,4]oxazino[4,3-a][1,5]naphthyridin]-9′-yl)phenyl)-2-(trifluoromethyl)isonicotinamide]: the IC50 amounted to 0.063 nM.

As to `CCN1C[C@@H]2CCOCCN2c2cc(-c3cc(NC(=O)c4ccnc(C(F)(F)F)c4)ccc3C)cnc2C1=O` [Example 504, (S)-N-(3-(7-ethyl-8-oxo-1,2,4,5,5a,6,7,8-octahydropyrido[2′, 3′:6,7][1,4]diazepino [1,2-d][1,4]oxazepin-11-yl)-4-methylphenyl)-2-(trifluoromethyl)iso-nicotinamide], the IC50 worked out at 15.4 nM.

Compound `Cc1ccc(NC(=O)c2ccnc(C(C)(F)F)c2)cc1-c1ccc2c(c1)N1CCOC[C@@H]1C[C@@H]2O` (single isomer, unassigned) [Example 14] registered a concentration for half-maximal inhibition (IC50) of 0.034 nM.

In the case of `CCN1C(=O)OC2COCCC2c2cc(-c3cc(NC(=O)c4ccnc(C(C)(F)F)c4)ccc3C)cnc21` [Example 302, 2-(1,1-difluoroethyl)-N-(3-((4aS,11bR-cis)-7-ethyl-6-oxo-2,4,4a,6,7,11b-hexahydro-1H-pyrano[4,3-f]pyrido[2,3-d][1,3]oxazepin-10-yl)-methylphenyl) isonicotinamide], the concentration for half-maximal inhibition (IC50) came out at 0.1 nM.

Turning to `Cc1ccc(NC(=O)c2ccnc(C(C)(F)F)c2)cc1-c1cnc2c(c1)N1CCOC[C@@H]1C(F)(F)[C@@H]2O` [Example 162, N-(3-((4aR,6R)-5,5-difluoro-6-hydroxy-1,2,4,4a,5,6-hexahydro-[1,4]oxazino[4,3-a][1,5]naphthyridin-9-yl)-4-methylphenyl)-2-(1,1-difluoroethyl)isonicotinamide], half-maximal inhibition (IC50) required 0.093 nM.

As for `Cc1ncc(NC(=O)c2cccc(C(F)(F)F)c2)cc1-c1ccc2c(c1)N1CCOC[C@H]1[C@@](F)(CO)C2` [Example 394, N-(5-((4aS,5R)-5-fluoro-5-(hydroxymethyl)-1,2,4,4a,5,6-hexahydro-[1,4]oxazino[4,3-a]quinolin-9-yl)-6-methylpyridin-3-yl)-3-(trifluoromethyl)benzamide], the 50% inhibitory concentration (IC50) was determined as 0.3 nM.

Turning to `CCN1C(=O)O[C@H]2COCC[C@@H]2c2cc(-c3cc(NC(=O)c4ccnc(C(F)(F)F)c4F)ccc3C)cnc21` [Example 304, N-(3-((4aR, 11bR)-7-ethyl-6-oxo-2,4,4a,6,7,11b-hexahydro-1H-pyrano[4,3-f]pyrido[2,3-d][1,3]oxazepin-10-yl)-4-methylphenyl)-3-fluoro-2-(trifluoromethyl) isonicotinamide], the midpoint of inhibition, the IC50, lay at 0.5 nM.

For `Cc1ccc(NC(=O)c2ccnc(C(C)(C)F)c2)cc1-c1cc(F)c2c(c1)N1CCOC[C@H]1[C@](F)(CO)C2` [Example 422, N-(3-((4aS,5S)-5,7-difluoro-5-(hydroxymethyl)-1,2,4,4a,5,6-hexahydro-[1,4]oxazino[4,3-a]quinolin-9-yl)-4-methylphenyl)-2-(2-fluoropropan-2-yl)isonicotinamide], the IC50 came to 1 nM.

The compound `Cc1ccc(NC(=O)c2ccnc(C(C)(F)F)c2)cc1-c1ccc2c(c1)N1CCOCC1C(CO)(CO)C2` (racemic) [Example 50, (rac)-N-(3-(5,5-bis(hydroxymethyl)-1,2,4,4a,5,6-hexahydro-[1,4]oxazino[4,3-a]quinolin-9-yl)-4-methylphenyl)-2-(1,1-difluoroethyl)isonicotinamide] showed an IC50 of 0.013 nM.

“(R)-2-(1,1- difluoroethyl)-3- fluoro-N-(3-(7-(2- hydroxyethyl)-6- oxo-2,4,4a,5,6,7- hexahydro-1H- [1,4]oxazino[4,3- d]pyrido[2,3- b][1,4]diazepin-10- yl)-4- methylphenyl) isonicotinamide [Example 308]” had a half-inhibitory concentration (IC50) of 0.7 nM.

In turn, `Cc1ccc(NC(=O)c2ccnc(C(C)(F)F)c2)cc1-c1cnc2c(c1)[C@@]1(C)CCOCC[C@@H]1C(=O)N2CCO` (relative stereo) [Example 352, 2-(1,1-difluoroethyl)-N-((5a,11b-trans)-3-(7-(2-hydroxyethyl)-11b-methyl-6-oxo-1,2,4,5,5a,6,7,11b-octahydrooxepino[4,5-c][1,8]naphthyridin-10-yl)-4-methylphenyl)isonicotinamide] showed an IC50 of 0.1 nM.

`CCN1C(=O)C2[C@H]3COC[C@H]3[C@@H]2c2cc(-c3cc(NC(=O)c4ccnc(C(F)(F)F)c4)ccc3C)cnc21` (stereo in doubt) [Example 268, N-(3-((6aS, 6bS, 9aS, 9bS)-5-ethyl-6-oxo-5,6,6a,6b,7,9,9a,9b-octahydrofuro[3′,4′: 3,4]cyclobuta[1,2-c][1,8]naphthyridin-2-yl)-4-methylphenyl)-2-(trifluoromethyl) isonicotinamide] returned an IC50 of 0.3 nM.

In the case of `Cc1ccc(NC(=O)c2ccnc(C(F)(F)F)c2)cc1-c1ccc2c(c1)N1CCOCC1CC2N` (racemic) [Example 28, (rac)-N-(3-(6-amino-1,2,4,4a,5,6-hexahydro-[1,4]oxazino[4,3-a]quinolin-9-yl)-4-methylphenyl)-2-(trifluoromethyl)isonicotinamide], the IC50 was found to be 0.059 nM.

The compound `Cc1ccc(NC(=O)c2ccnc(C(F)(F)F)c2)cc1-c1cnc2c(c1)N1CCOCC1C(=O)N2` (racemic) [Example 112, rac-N-(4-Methyl-3-(5-oxo-1,2,4,4a,5,6-hexahydropyrido[2′,3′:5,6]pyrazino[2,1-c][1,4]oxazin-9-yl)phenyl)-2-(trifluoromethyl)isonicotinamide] yielded an IC50 below 0.0017 nM.

The compound `Cc1ccc(NC(=O)c2ccnc(C(F)(F)F)c2F)cc1-c1cnc2c(c1)N1CCOCC1C(C)(C)C2O` (centres unmarked) [Example 337, 3-fluoro-N-(3-(6-hydroxy-5,5-dimethyl-1,2,4,4a,5,6-hexahydro-[1,4]oxazino[4,3-a][1,5]naphthyridin-9-yl)-4-methylphenyl)-2-(trifluoromethyl) isonicotinamide] returned an IC50 of 0.3 nM.

`Cc1ccc(NC(=O)c2ccnc(C(F)(F)F)c2)cc1-c1cnc2c(c1)N1CCOC[C@H]1C[C@H]2O` [Example 102, N-(3-((4aR,6R)-6-Hydroxy-1,2,4,4a,5,6-hexahydro-[1,4]oxazino[4,3-a][1,5]naphthyridin-9-yl)-4-methylphenyl)-2-(trifluoromethyl)isonicotinamide]: the IC50 was below 0.0017 nM.

In the case of `Cc1ncc(NC(=O)c2cccc(C(F)(F)F)c2)cc1-c1cnc2c(c1)N1CCOC[C@H]1C[C@H]2O` [Example 105, N-(5-((4aR,6R)-6-Hydroxy-1,2,4,4a,5,6-hexahydro-[1,4]oxazino[4,3-a][1,5]naphthyridin-9-yl)-6-methylpyridin-3-yl)-3-(trifluoromethyl)benzamide], half-maximal inhibition (IC50) required 0.045 nM.

Take `Cc1ccc(NC(=O)c2ccnc(C(F)(F)F)c2)cc1-c1cc(F)c2c(c1)N1CCOC[C@H]1[C@@](F)(CO)C2` [Example 429, N-(3-((4aS,5R)-5,7-difluoro-5-(hydroxymethyl)-1,2,4,4a,5,6-hexahydro-[1,4]oxazino[4,3-a]quinolin-9-yl)-4-methylphenyl)-2-(trifluoromethyl)isonicotinamide]: the IC50 worked out at 0.8 nM.

Usually IC50 stands for the concentration that gives 50% inhibition. A low value points to greater potency in that assay.

The values above are taken from patent US10377770B2 (Novartis AG, priority 2015, dated 2019).
